Test results: PubChem BioAssay (NCI)
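Results reflect a 48-hour exposure of cells in 96-well plates to compound at five concentrations. The concentration for full growth arrest is given as TGI.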 Where a SMILES comes first, the peptide text is derived from it. The star is where a group is joined. Cbz = O=C(OCc1ccccc1)*

Columns and labels:
Experiment in all cases: DTP human tumour cell line panel, 48 h
[1] = test system: MDA-MB-231 breast
[2] = test system: SN12C renal
[3] = test system: MDA-MB-435
[4] = test system: T-47D breast
[5] = test system: SK-MEL-2 melanoma
[6] = test system: NCI/ADR-RES ovarian
[7] = test system: 786-0 renal
[8] = test system: TK-10 renal
[9] = test system: COLO 205 colon
[10] = test system: HL-60(TB) leukemia
[11] = test system: PC-3 prostate
[12] = test system: BT-549 breast

| Compound | TGI [1] | TGI [2] | TGI [3] | TGI [4] | TGI [5] | TGI [6] | TGI [7] | TGI [8] | TGI [9] | TGI [10] | TGI [11] | TGI [12] |
| --- | --- | --- | --- | --- | --- | --- | --- | --- | --- | --- | --- | --- |
| COc1ccc(Nc2nc3ccccc3nc2-c2cccs2)cc1OC | > 10 µM | > 10 µM | > 10 µM | > 10 µM | > 10 µM | > 10 µM | > 10 µM | > 10 µM | > 10 µM | > 10 µM | > 10 µM | – |
| CN(C)c1ccc(-c2c(C#N)c(-c3ccccc3)n(NS(=O)(=O)c3ccccc3)c(=O)c2C#N)cc1 | > 100 µM | > 100 µM | > 100 µM | – | > 100 µM | > 100 µM | > 100 µM | > 100 µM | > 100 µM | – | > 100 µM | > 100 µM |
| NC(=O)N/N=C(\Cc1cc(=O)oc2cc(O)ccc12)C(=O)Nc1ccccc1C(N)=O | > 100 µM | > 100 µM | > 100 µM | – | > 100 µM | > 100 µM | > 100 µM | > 100 µM | > 100 µM | > 100 µM | > 100 µM | > 100 µM |
| CC(Nc1cccc(Cl)c1)c1ccncc1 (stereo unspecified) | > 100 µM | > 100 µM | > 100 µM | > 100 µM | > 100 µM | > 100 µM | > 100 µM | > 100 µM | > 100 µM | – | > 100 µM | > 100 µM |
| Cc1cc2c(cc1Cl)SSc1cc(Cl)c(C)cc1S(=O)(=O)Nc1nc(N)nn1C(O)n1nc(N)nc1NS2(=O)=O | – | > 10 µM | – | > 10 µM | > 10 µM | > 10 µM | > 10 µM | > 10 µM | > 10 µM | > 10 µM | > 10 µM | > 10 µM |
| CC(C)C(Sc1nc(-c2ccccc2)c(-c2ccccc2)[nH]1)C(=O)N/N=C/c1ccc(Cl)cc1 (stereo unspecified) | – | 36.3 µM | – | – | 36.5 µM | – | 40.8 µM | > 100 µM | 35.5 µM | 56.6 µM | – | – |
| c1ccc(C/C(=N\Nc2nc3ccccc3[nH]2)c2ccccn2)cc1 | 13.4 µM | 10.9 µM | 11.1 µM | 15.6 µM | 15.3 µM | 0.0936 µM | 5.7 µM | 1.83 µM | – | – | 0.503 µM | 16.1 µM |
| CCOC(=O)CCC(NC(=O)C(CC(=O)OC)NC(=O)OCc1ccccc1)C(=O)NC(CC(=O)OC)C(=O)NC(CCC(=O)OCC)C(=O)NC(CC(=O)OC)C(=O)NC(CCC(=O)OCC)C(=O)NC(CC(=O)OCC)C(=O)OCC (stereo unspecified) (Cbz-D(OMe)E(OEt)D(OMe)E(OEt)D(OMe)E(OEt)D(OEt)-OEt; configuration not given here) | > 100 µM | > 100 µM | > 100 µM | > 100 µM | > 100 µM | – | > 100 µM | > 100 µM | – | > 100 µM | > 100 µM | > 100 µM |
| Cn1c2ccccc2n2c(=O)c(-c3ccc(Cl)cc3)nnc12 | > 100 µM | > 100 µM | > 100 µM | > 100 µM | > 100 µM | > 100 µM | > 100 µM | > 100 µM | > 100 µM | > 100 µM | – | > 100 µM |
| CCOC(=O)Cn1nnc2ccc(Nc3nc4ccccc4nc3C(=O)OCC)cc21 | – | > 100 µM | > 100 µM | > 100 µM | > 100 µM | > 100 µM | > 100 µM | > 100 µM | > 100 µM | > 100 µM | > 100 µM | > 100 µM |
